According to patent publication US11484593B2, “Atropisomers of halogenated tetraphenylbacteriochlorins and chlorins and their use in photodynamic therapy” (LUZITIN, S.A., priority 2015, dated 2022):

Assays:
[1] = Absorption spectra / molar absorption coefficients (Beer-Lambert) in ethanol; format: physicochemical; conditions: for ε/10^3: infrared absorption maximum
[2] = Triplet lifetimes by nanosecond laser flash photolysis, excitation at 355 nm; format: physicochemical; conditions: triplet lifetime in aerated ethanol
[3] = Singlet oxygen quantum yield in ethanol (phosphorescence at 1270 nm, phenalenone reference); format: physicochemical; conditions: aerated ethanol
[4] = tested on: HT-29 (human colon carcinoma) cells; assay: In vitro phototoxicity, resazurin cell viability after irradiation at 749 nm; format: cell-based; conditions: light dose 1 J/cm^2 at 749 nm, 24 h incubation
[5] = tested on: CT26 (mouse colon carcinoma) cells; assay: as above; format: cell-based
[6] = photodecomposition quantum yield, aerated methanol:PBS (3:2), 749 nm, 640 mW
[7] = tested on: subcutaneous CT26 tumor; assay: Vascular-PDT of subcutaneous CT26 tumor in BALB/c mice with enriched atropisomer compositions (Example 7); format: in vivo; conditions: nominal 0.7 mg/kg i.v., 15 min later 55 J on 1.33 cm^2
[8] = in ethanol, reference; cited from earlier work
[9] = light dose 1 J/cm^2 at 749 nm, extrapolated from non-linear regression curve
[10] = light dose 1 J/cm^2 at 749 nm, 24 h incubation

SMILES	λmax [1]	ε/10^3 [1]	τT (air) [2]	ΦΔ [3]	IC50 [4]	IC90 [4]	IC50 ([5]; light dose 1 J/cm^2, Table 1, extrapolated from non-linear regression curve)	IC50 [5, 9]	IC90 [5, 9]	ΦPD/10^−6 [6]	IC50 ([5]; light dose 1 J/cm^2, Table 1)	IC50 [5, 10]	IC90 [5, 10]	long-term cures (tumor-free 60 days after the treatment) [7]	median survival time [7]	singlet oxygen quantum yield ΦΔ (literature value) [8]	median survival time shorter than with the LUZ11 sample [7]
CNS(=O)(=O)c1ccc(F)c(-c2c3nc(c(-c4c(F)ccc(S(=O)(=O)NC)c4F)c4ccc([nH]4)c(-c4c(F)ccc(S(=O)(=O)NC)c4F)c4nc(c(-c5c(F)ccc(S(=O)(=O)NC)c5F)c5ccc2[nH]5)CC4)CC3)c1F (single isomer, unassigned) [LUZ11-A]	743 nm	126 M^−1 cm^−1	257 ± 7 ns	0.39	0.343 µM	1.01 µM	67.3 µM	67.3 µM	2830 µM	15	–	–	–	–	–	–	–
CNS(=O)(=O)c1ccc(F)c(-c2c3nc(c(-c4c(F)ccc(S(=O)(=O)NC)c4F)c4ccc([nH]4)c(-c4c(F)ccc(S(=O)(=O)NC)c4F)c4nc(c(-c5c(F)ccc(S(=O)(=O)NC)c5F)c5ccc2[nH]5)CC4)CC3)c1F (single isomer, unassigned) [LUZ11-B]	743 nm	137 M^−1 cm^−1	296 ± 33 ns	0.35	0.178 µM	0.433 µM	–	–	7.53 µM	15	1.46 µM	1.46 µM	–	–	–	–	–
CNS(=O)(=O)c1ccc(F)c(-c2c3nc(c(-c4c(F)ccc(S(=O)(=O)NC)c4F)c4ccc([nH]4)c(-c4c(F)ccc(S(=O)(=O)NC)c4F)c4nc(c(-c5c(F)ccc(S(=O)(=O)NC)c5F)c5ccc2[nH]5)CC4)CC3)c1F [LUZ11]	–	–	–	–	0.367 µM	0.588 µM	–	–	–	–	–	0.871 µM	4.31 µM	not possible to obtain long-term cures	20 days	–	–
O=C1C=Cc2cccc3cccc1c23 [phenalenone]	–	–	–	–	–	–	–	–	–	–	–	–	–	–	–	0.95	–
CNS(=O)(=O)c1ccc(F)c(-c2c3nc(c(-c4c(F)ccc(S(=O)(=O)NC)c4F)c4ccc([nH]4)c(-c4c(F)ccc(S(=O)(=O)NC)c4F)c4nc(c(-c5c(F)ccc(S(=O)(=O)NC)c5F)c5ccc2[nH]5)CC4)CC3)c1F [sample X]	–	–	–	–	–	–	–	–	–	–	–	–	–	absence of long-term cures	18 days	–	2 days
